The values below come from US12478624B2, “Heterocyclic derivatives, pharmaceutical compositions and their use in the treatment or amelioration of cancer” (Tolremo Therapeutics AG, priority 2019, dated 2025).

For one experiment, the system named is A375 cells. Description: Assay 1: A375 cells treated with S1152, S1008 and compound, immunofluorescence (sc-365823) signal. The following applies: 1 μM S1152 + 0.5 μM S1008, one day. It counts as cell-based. A digest of the protocol:
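A375 cells treated one day with 1 μM S1152, 0.5 μM S1008 and compound dose ranges in DMEM/10% FCS, then fixed, permeabilised and immunostained. Green signal normalised to nuclear counterstain (ethidium-type or DAPI), log ratio fitted by four-parameter regression for EC50.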

The subject of another experiment is OPM-2. The experiment in a line: Assay 2: multiple myeloma cellular efficacy, PrestoBlue cell proliferation/survival. The format is cell-based. To be noted: Homo sapiens, 96 h, OPM-2 cells, 4 days. As to the method:
Multiple Myeloma Cellular Efficacy:
10000 OPM-2 (ACC50; DSMZ) were plated into wells of a 384 well plate (Greiner 781090). Cells were treated for 4 days with a dose range of compound or vehicle. At the end of the experiment cells were stained directly with PrestoBlue (ThermoFisher Scietific; A13262) for 2 hours at 37° C. in a humidified incubator according to manufactor's instruction. To assess the relative cell number the PrestoBlue signal was measured using either a TecanM1000Pro reader or a Tecan Sparks reader following the manufactor's instructions. Background (no cells) values were subtracted and set in relation to the vehicle control. To assess the EC50 of each compound the relative fluorescence value was plotted against the compound concentration after log transformation. Data were fitted in a nonlinear manner with a variable slope (four parameters) using graphpad prism software. Cellular efficacy of compounds was evaluated in the multiple myeloma cell line OPM-2 using the cell proliferation/survival assay PrestoBlue. EC50 values are classified as indicated below.

On to `CC(=O)N1C[C@H](c2nc(Nc3ccnc(C)c3)cc(-c3cncc(OC(F)F)c3)n2)CC[C@@H]1C` [Compound 00111, 1-((2S,5R)-5-(4-(5-(difluoromethoxy)pyridin3-yl)-6-((2-methylpyridin4-yl)amino)pyrimidin-2-yl)-2-methylpiperidin-1-yl)ethan-1-one], for which the EC50 (commonly the concentration at which the effect is half-maximal) in the experiment on A375 cells is less than 0.2 µM; in the experiment with OPM-2, 0.2 to 1 µM.

Consider `CC(=O)N1C[C@H](c2nc(Nc3ccnc(C)c3)cc(-c3cncc4c3cnn4C)n2)CC[C@@H]1C` [Compound 00112, 1-((2S,5R)-2-methyl-5-(4-(1-methyl-1/7-pyrazolo[3,4-c]pyridin-4-yl)-6-((2-methylpyridin-4-yl)amino)pyrimidin-2-yl)piperidin-1-yl)ethan-1-one], for which the EC50 with A375 cells and with OPM-2 was less than 0.2 µM in each case.

For `CC(=O)N1C[C@H](c2nc(Nc3ccnc(C)c3)cc(-c3cncc(N4CC(C(=O)N(C)C)C4)c3)n2)CC[C@@H]1C` [Compound 00113, 1-(5-(2-((3R,6S)-1-acetyl-6-methylpiperidin-3-yl)-6-((2-methylpyridin-4-yl)amino)pyrimidin-4-yl)pyridin-3-yl)-N,N-dimethylazetidine-3-carboxamide], the EC50 with A375 cells and in the experiment with OPM-2 was 1 to 10 µM each time.

On to `CC(=O)N1C[C@H](c2nc(Nc3ccnc(C)c3)cc(-c3cncc(N4C[C@@H]5C[C@H]4CO5)c3)n2)CC[C@@H]1C` [Compound 00115, 1-((2S,5R)-5-(4-(5-((1S,4S)-2-oxa-5-azabicyclo[2.2.1]heptan-5-yl)pyridin-3-yl)-6-((2-methylpyridin-4-yl)amino)pyrimidin-2-yl)-2-methylpiperidin-1-yl)ethan-1-one], for which the results for the EC50 in the experiment on A375 cells and with OPM-2 were less than 0.2 µM and 0.2 to 1 µM, respectively.

For `CC(=O)N1C[C@H](c2nc(Nc3ccnc(C)c3)cc(-c3cncc4c3ccn4C)n2)CC[C@@H]1C` [Compound 00116, 1-((2S,5R)-2-methyl-5-(4-(1-methyl-1/7-pyrrolo[2,3-c]pyridin4-yl)-6-((2-methylpyridin-4-yl)amino)pyrimidin-2-yl)piperidin1-yl)ethan-1-one], the EC50 in the experiment with A375 cells and with OPM-2 was less than 0.2 µM in each case.

For the compound `CC(=O)N1C[C@H](c2nc(Nc3ccnc(F)c3)cc(-c3cncc(O)c3)n2)CC[C@@H]1C` [Compound 00117, 1-((2S,5R)-5-(4-((2-fluoropyridin-4-yl)amino)-6-(5-hydroxypyridin-3-yl)pyrimidin-2-yl)-2-methylpiperidin-1-yl)ethan-1-one], the 50% effective concentration (EC50) in the experiment on A375 cells and in the experiment with OPM-2 was 1 to 10 µM in each case.

On to `CC(=O)N1C[C@H](c2nc(Nc3ccnc(F)c3)cc(-c3cncc4c3ccn4C)n2)CC[C@@H]1C` [Compound 00118, 1-((2S,5R)-5-(4-((2-fluoropyridin-4-yl)amino)-6-(1-methyl-1H-pyrrolo[2,3-c]pyridin-4-yl)pyrimidin-2-yl)-2-methylpiperidin-1-yl)ethan-1-one], for which the EC50 in the experiment with A375 cells and with OPM-2 was less than 0.2 µM in each case.

For `COCCOc1cncc(-c2cc(Nc3ccnc(F)c3)nc([C@@H]3CC[C@H](C)N(C(C)=O)C3)n2)c1` [Compound 00119, 1-((2S,5R)-5-(4-((2-fluoropyridin-4-yl)amino)-6-(5-(2-methoxyethoxy)pyridin-3-yl)pyrimidin-2-yl)-2-methylpiperidin-1-yl)ethan-1-one], the EC50 with A375 cells and in the experiment with OPM-2 was less than 0.2 µM in each case.

On to `CC(=O)N1C[C@H](c2nc(Nc3ccnc(C(F)(F)F)c3)cc(-c3cccnc3)n2)CC[C@@H]1C` [Compound 00123, 1-((2S,5R)-2-methyl-5-(4-(pyridin-3-yl)-6-((2-(trifluoromethyl)pyridin-4-yl)amino)pyrimidin-2-yl)piperidin 1-yl)ethan-1-one], for which the concentration giving a half-maximal response (EC50) with A375 cells and in the experiment on OPM-2 was less than 0.2 µM each time.

As for `CC(=O)N1C[C@H](c2nc(Nc3cncc(C(F)(F)F)c3)cc(-c3cccnc3)n2)CC[C@@H]1C` [Compound 00124, 1-((2S,5R)-2-methyl-5-(4-(pyridin-3-yl)-6-((5-(trifluoromethyl)pyridin-3-yl)amino)pyrimidin-2-yl)piperidin 1-yl)ethan-1-one], the concentration giving a half-maximal response (EC50) with A375 cells was less than 0.2 µM; with OPM-2 it was 0.2 to 1 µM.

On to `CC(=O)N1C[C@H](c2nc(Nc3ccnc(C)c3)cc(-c3cnccn3)n2)CC[C@@H]1C` [Compound 000126], for which the half-maximal effective concentration (EC50) in the experiment on A375 cells and with OPM-2 was less than 0.2 µM throughout.

`CC(=O)N1C[C@H](c2nc(Nc3ccnc(C(F)F)c3)cc(-c3cnccn3)n2)CC[C@@H]1C` [Compound 00130, 1-((2S,5R)-5-(4-((2-(difluoromethyl)pyridin-4-yl)amino)-6-(pyrazin-2-yl)pyrimidin-2-yl)-2-methylpiperidin-1-yl)ethan-1-one]: the concentration giving a half-maximal response (EC50) in the experiment on A375 cells and in the experiment with OPM-2 was less than 0.2 µM throughout.

Consider `CC(=O)N1C[C@H](c2nc(Nc3ccnc(C)c3)cc(-c3cncc(C)n3)n2)CC[C@@H]1C` [Compound 00131, 1-((2S,5R)-2-methyl-5-(4-(6-methylpyrazin-2-yl)-6-((2-methylpyridin-4-yl)amino)pyrimidin-2-yl)piperidin-1-yl)ethan-1-one], for which the EC50 in the experiment on A375 cells and in the experiment with OPM-2 was less than 0.2 µM in each case.

`COc1cncc(-c2cc(Nc3cncc(C)c3)nc([C@@H]3CC[C@H](C)N(C(C)=O)C3)n2)c1` [Compound 00132, 1-((2S,5R)-5-(4-(5-methoxypyridin-3-yl)-6-((5-methylpyridin-3-yl)amino)pyrimidin-2-yl)-2-methylpiperidin-1-yl)ethan-1-one]: the EC50 with A375 cells and in the experiment on OPM-2 was less than 0.2 µM in each case.

Turning to `CC(=O)N1C[C@H](c2nc(Nc3cc(C)nc(F)c3)cc(-c3cccnc3)n2)CC[C@@H]1C` [Compound 00134, 1-((2S,5R)-5-(4-((2-fluoro-6-methylpyridin-4-yl)amino)-6-(pyridin-3-yl)pyrimidin-2-yl)-2-methylpiperidin-1-yl)ethan1-one], the EC50 with A375 cells and in the experiment on OPM-2 was less than 0.2 µM in each case.

On to `CC(=O)Nc1cc(Nc2cc(-c3cccnc3)nc([C@@H]3CC[C@H](C)N(C(C)=O)C3)n2)ccn1` [Compound 00136, N-(4-((2-((3R,6S)-1-acetyl-6-methylpiperidin-3-yl)-6-(pyridin-3-yl)pyrimidin-4-yl)amino)pyridin-2-yl)acetamide], for which the EC50 in the experiment on A375 cells and in the experiment on OPM-2 was 1 to 10 µM each time.

For the compound `CC(=O)Nc1cc(Nc2cc(-c3cnccn3)nc([C@@H]3CC[C@H](C)N(C(C)=O)C3)n2)ccn1` [Compound 00137, N-(4-((2-((3R,6S)-1-acetyl-6-methylpiperidin-3-yl)-6-(pyrazin-2-yl)pyrimidin-4-yl)amino)pyridin-2-yl)acetamide], the concentration for a half-maximal effect (EC50) is 0.2 to 1 µM in the experiment with A375 cells and 1 to 10 µM with OPM-2.

For the compound `CC(=O)N1C[C@H](c2nc(Nc3cc(C)nc(C)c3)cc(-c3cccnc3)n2)CC[C@@H]1C` [Compound 00138, 1-((2S,5R)-5-(4-((2,6-dimethylpyridin-4-yl)amino)-6-(pyridin-3-yl)pyrimidin-2-yl)-2-methylpiperidin-1-yl)ethan-1-one], the EC50 is less than 0.2 µM in the experiment with A375 cells and 0.2 to 1 µM with OPM-2.

Turning to `COc1cc(Nc2cc(-c3cccnc3)nc([C@@H]3CC[C@H](C)N(C(C)=O)C3)n2)ccn1` [Compound 00139, 1-((2S,5R)-5-(4-((2-methoxypyridin-4-yl)amino)-6-(pyridin-3-yl)pyrimidin-2-yl)-2-methylpiperidin-1-yl)ethan1-one], the concentration for a half-maximal effect (EC50) with A375 cells and in the experiment on OPM-2 was less than 0.2 µM each time.

For `COc1cc(Nc2cc(-c3cccnc3)nc([C@@H]3CC[C@H](C)N(C(C)=O)C3)n2)cc(C)n1` [Compound 00140, 1-((2S,5R)-5-(4-((2-methoxy-6-methylpyridin-4-yl)amino)-6-(pyridin-3-yl)pyrimidin-2-yl)-2-methylpiperidin-1-yl)ethan-1-one], the concentration giving a half-maximal response (EC50) in the experiment with A375 cells and in the experiment on OPM-2 was less than 0.2 µM each time.

With `CC(=O)N1C[C@H](c2nc(Nc3cccc(-c4nnco4)c3)cc(-c3cccnc3)n2)CC[C@@H]1C` [Compound 00141, 1-((2S,5R)-5-(4-((3-(1,3,4-oxadiazol-2-yl)phenyl)amino)-6-(pyridin-3-yl)pyrimidin-2-yl)-2-methylpiperidin-1-yl)ethan-1-one], the concentration for a half-maximal effect (EC50) in the experiment with A375 cells and with OPM-2 was less than 0.2 µM in each case.

Regarding `CC(=O)N1C[C@H](c2nc(Nc3cccc(-c4nnc(C)o4)c3)cc(-c3cccnc3)n2)CC[C@@H]1C` [Compound 00142, 1-((2S,5R)-2-methyl-5-(4-((3-(5-methyl-1,3,4-oxadiazol-2-yl)phenyl)amino)-6-(pyridin-3-yl)pyrimidin-2-yl)piperidin-1-yl)ethan-1-one], the concentration giving a half-maximal response (EC50) in the experiment with A375 cells and in the experiment on OPM-2 was less than 0.2 µM each time.

For the compound `CC(=O)N1C[C@H](c2nc(Nc3ccnc(-c4cnn(C)c4)c3)cc(-c3cccnc3)n2)CC[C@@H]1C` [Compound 00143, 1-((2S,5R)-2-methyl-5-(4-((2-(1-methyl-1H-pyrazol-4-yl)pyridin-4-yl)amino)-6-(pyridin-3-yl)pyrimidin-2-yl)piperidin-1-yl)ethan-1-one], the 50% effective concentration (EC50) with A375 cells and in the experiment on OPM-2 was less than 0.2 µM throughout.

On to `CC(=O)N1C[C@H](c2nc(Nc3cc(C)nc(C(F)F)c3)cc(-c3cccnc3)n2)CC[C@@H]1C` [Compound 00144, 1-((2S,5R)-5-(4-((2-(difluoromethyl)-6-methylpyridin-4-yl)amino)-6-(pyridin-3-yl)pyrimidin-2-yl)-2-methylpiperidin-1-yl)ethan-1-one], for which the EC50 in the experiment with A375 cells and in the experiment on OPM-2 was less than 0.2 µM throughout.
